Legend:
MC3T3-E1 osteoblasts [1] = test: Promotion of osteoblast mineralization: calcium deposition by Alizarin Red staining; type: cell-based; conditions: 1.5 or 5 mM in osteoblast mineralization medium (OM), 14 days
Description: Cells were treated with 1-Methyleffusol (1.5 or 5 mM) in osteoblast mineralization medium (OM) for 14 days, and the calcium deposition in the cell layer was measured by Alizarin Red staining (images not shown).

MC3T3-E1 osteoblasts [2] = test: Stimulation of alkaline phosphatase (ALP) activity as a marker of bone forming activity; type: cell-based; conditions: 0.5 μM and 1.5 μM, 4 days; ASC+b-GP as positive control
Description: Cells were treated with 0.5 μM and 1.5 μM concentrations of 1-Methyleffusol for 4 days and the alkaline phosphatase (ALP) activity, as a marker of bone forming activity, was measured. Ascorbate and beta-glycerophosphate treatment (ASC+b-GP) was performed as positive control for ALP induction.

bone forming activities = conditions: prior studies (U.S. application Ser. No. 17/713,384; Chinese Application No. 202210551690.4); cited from earlier work

C=Cc1cc(O)c(C)c2c1-c1ccc(O)c(C)c1CC2 [1-Methyleffusol, 1,8-dimethyl-4-vinyl-9,10-dihydrophenanthrene-2,7-diol]
mineralization (calcium deposition in the cell layer, Alizarin Red staining) (MC3T3-E1 osteoblasts [1]): promoted mineralization
alkaline phosphatase (ALP) activity (MC3T3-E1 osteoblasts [2]): stimulate ALP activity
stimulation of bone forming activities (bone forming activities): exhibited the ability for stimulation of bone forming activities

From patent publication US20260159465A1, “METHODS OF MAKING AND USING 1-METHYLEFFUSOL” (Laboratory for Synthetic Chemistry and Chemical Biology …, priority 2024, published 2026)
